SMILES strings stand for the structures.

A word on the IC50: it is the concentration that gives 50% inhibition.

One assay concerns the target T1, Human Polymorphonuclear Leukocyte Elastase (Homo sapiens, UniProt P08246).
T1 construct: Crude extract of human polymorphonuclear leukocytes (PMN) containing elastase activity; endogenous in cells; host or cells: human polymorphonuclear leukocytes (crude extract)
T1 sequence (P08246 30-247 limits assumed): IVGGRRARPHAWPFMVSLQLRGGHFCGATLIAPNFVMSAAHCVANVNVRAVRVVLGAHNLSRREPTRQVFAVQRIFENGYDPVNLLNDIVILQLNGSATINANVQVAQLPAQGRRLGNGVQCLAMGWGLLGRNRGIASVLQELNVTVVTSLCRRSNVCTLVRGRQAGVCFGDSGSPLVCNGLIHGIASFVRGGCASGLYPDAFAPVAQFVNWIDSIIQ
Description: Inhibition of human polymorphonuclear leukocyte (granulocyte) elastase via hydrolysis of Boc-AAPAN.
Conditions: not given
It is filed as biochemical. The procedure:
Enzyme assay for the Inhibition of Human Polymorphonuclear Leukocyte Elastase Via Hydrolysis of N-t-Boc-alanyl-alanyl-prolylalanine-p-nitroanilide
0.05M TES (N-tris[hydroxymethyl]methyl-2-amino-ethanesulfonic acid) buffer, pH 7.5.
0.2 mM N-t-Boc-alanyl-alanyl-prolyl-alanine-p-nitroanilide (Boc-AAPAN).
To prepare substrate, the solid (m.w. 550) was first dissolved in 10.0 ml DMSO. Buffer at pH 7.5 was then added to a final volume of 100 ml.
Crude extract of human polymorphonuclear leukocytes (PMN) containing elastase activity.
Inhibitors (cephalosporin sulfoxide esters) to be tested dissolved in DMSO just before use.
To 1.0 ml of 0.2 mM Boc-AAPAN in a cuvette, 0.01-0.1 ml of DMSO with or without inhibitor was added. After mixing, a measurement was taken at 410 mμ to detect any spontaneous hydrolysis due to of test compound. 0.05 Milliliters of PMN extract was then added and the αOD/minute at 410 mμ was measured and recorded. Beckman model 35 spectrophotometer was used.
The elastase activity in the crude PMN extract may vary from one preparation to another. A control of each new batch is run, and the volume added in the assay procedure is adjusted according to activity.
For `CC1(C)[C@H](C(=O)OCc2ccccc2)N2C(=O)[C@H](COC(=O)NCc3ccccc3)[C@H]2S1(=O)=O` [6α-CH2 O(CO)NH(BZ) / 2 / OBZ], the IC50 was 8.22 µM. Still for that read-out and setting: with `CN(C(=O)C(F)(F)F)[C@H]1C(=O)N2[C@@H](C(=O)OCc3ccccc3)C(C)(C)S(=O)(=O)[C@H]12` [6α-CF3 CON(CH3) / 2 / OBZ, Benzyl 6α-(N-methyltrifluoroacetamido)penicillanate-1,1-dioxide] the figure was 0.446 µM; with `CC1(C)[C@H](C(=O)OCc2ccccc2)N2C(=O)[C@@H](COC(=O)NCc3ccccc3)[C@H]2S1(=O)=O` [6β-CH2 O(CO)NH(BZ) / 2 / OBZ], 1.44 µM; with `CC1(C)[C@H](C(=O)OCc2ccccc2)N2C(=O)[C@H](NC(=O)C(F)(F)F)[C@H]2S1(=O)=O` [6α-CF3 CONH / 2 / OBZ, Benzyl 6α-trifluoroacetamidopenicillanate-1,1-dioxide], 0.345 µM.

As to `CC1(C)[C@H](C(=O)OCc2ccccc2)N2C(=O)[C@@H](NC(=O)C(F)(F)F)[C@H]2S1(=O)=O` [6β-CF3 CONH / 2 / OBZ], inhibition was half-maximal at 4.6 µM (IC50). Still for that read-out and setting: with `Cc1ccc(S(=O)(=O)OC2C(=O)N3[C@@H](C(=O)OCc4ccccc4)C(C)(C)S(=O)(=O)[C@H]23)cc1` (stereo partly drawn) [p-CH3 C6 H4 SO2 O(TsO) / 2 / OBZ] the figure was 0.101 µM; with `CCO[C@H]1C(=O)N2[C@@H](C(=O)OCc3ccc(C(=O)O)cc3)C(C)(C)S(=O)(=O)[C@H]12` [6α-OC2 H5 / 2 / OBZ(p-COOH)], 1.46 µM.

Still in this assay, the particulars now being: crude human PMN extract, 0.2 mM Boc-AAPAN, pH 7.5, 410 mμ, 2 minutes after zero time; read-out: IC50 (dosage for 50% inhibition of the enzyme activity) (converted).
As for `CC1(C)[C@H](C(=O)c2ccccc2)N2C(=O)[C@@H](NC(=O)C(F)(F)F)[C@H]2S1(=O)=O` [6β-CF3 CONH / 2 / Ph], the half-maximal inhibitory concentration (IC50) was 2.47 µM. On the same count and under the same terms, next, `CC1(C)[C@H](C(=O)OCc2ccccc2)N2C(=O)[C@H](OCc3ccccc3)[C@H]2S1(=O)=O` [6α-OBZ / 2 / OBZ]: 9.31 µM; `CC1(C)S[C@@H]2[C@@H](COC(=O)NCc3ccccc3)C(=O)N2[C@H]1C(=O)OCc1ccccc1` [6α-CH2 O(CO)NH(BZ) / 0 / OBZ]: 11 µM; `CC(C)(C)OC(=O)[C@@H]1CCCN1C(=O)[C@@H]1N2C(=O)[C@H](NC(=O)C(F)(F)F)[C@H]2S(=O)(=O)C1(C)C` [6α-CF3 (CO)NH / 2 / drawing 31]: 40.2 µM. For `CCO[C@H]1C(=O)N2[C@@H](C(=O)OCc3ccccc3)C(C)(C)S(=O)(=O)[C@H]12` [6α-OC2 H5 / 2 / OBZ, Benzyl 6α-ethoxypenicillanate-1,1-dioxide], the IC50 is 5.44 µM. As for `Cc1ccc(S(=O)(=O)C[C@H]2C(=O)N3[C@@H](C(=O)OCc4ccccc4)C(C)(C)S(=O)(=O)[C@H]23)cc1` [6α-(TS)CH2 / 2 / OBZ], the IC50 was 0.61 µM.

Consider `CO[C@H]1C(=O)N2[C@@H](C(=O)OCC(F)(F)F)C(C)(C)S(=O)(=O)[C@H]12` [6α-OCH3 / 2 / OCH2 CF3], for which the IC50 is 11.6 µM.

Turning to `CN(Cc1ccccc1)C(=O)[C@@H]1N2C(=O)[C@@H](NC(=O)C(F)(F)F)[C@H]2S(=O)(=O)C1(C)C` [6β-CF3 (CO)NH / 2 / N(CH3)(BZ), 2,2-Dimethyl-6-(trifluoro-acetamido)-3-(N-methyl-N-benzylcarbamoyl)penam-1,1-dioxide], the IC50 was 4.47 µM.

On to `CO[C@H]1C(=O)N2[C@@H]1[S+]([O-])C(C)(COC(C)=O)[C@@H]2C(=O)OCc1ccccc1` (stereo partly drawn) [α-CH3 O / 1 / OBZ], for which the IC50 is 10.1 µM.

On to `CC(C)(C)OC(=O)c1ccc(COC(=O)[C@@H]2N3C(=O)[C@H](NC(=O)C(F)(F)F)[C@H]3S(=O)(=O)C2(C)C)cc1` [6α-CF3 (CO)NH / 2 / OBZ(p-COOtBu)], for which the IC50 was 0.187 µM. Still for that read-out and setting: next, `CC(=O)O[C@H]1C(=O)N2[C@@H]1SC(C)(C)[C@@H]2C(=O)OCc1ccccc1` [CH3 COO / 0 / OBZ]: 28.6 µM; `CC[C@@]1(NC(=O)C(F)(F)F)C(=O)N2[C@@H](C(=O)OCc3ccccc3)C(C)(C)S(=O)(=O)[C@@H]21` [β-CF3 CONH / α-C2 H5 / 2 / OBZ, benzyl 6α-ethyl-6β-trifluoroacetamidopenicillanate-1,1-dioxide]: 6.49 µM. As for `C[C@@H](OC(=O)OCc1ccccc1)[C@H]1C(=O)N2[C@@H](C(=O)OCc3ccccc3)C(C)(C)S(=O)(=O)[C@H]12` [drawing 29 / 2 / OBZ], the IC50 is 0.0997 µM.

`Cc1ccc(S(=O)(=O)OC2C(=O)N3[C@@H]2[S+]([O-])C(C)(C)[C@@H]3C(=O)OCc2ccccc2)cc1` (stereo partly drawn) [p-CH3 C6 H4 SO2 O(TsO) / 1 / OBZ]: the IC50 is 4.19 µM. Same read-out and setting: with `CC1(C)[C@H](C(=O)OCc2ccc(C(=O)O)cc2)N2C(=O)[C@H](NC(=O)C(F)(F)F)[C@H]2S1(=O)=O` [6α-CF3 (CO)NH / 2 / OBZ(p-COOH)] the figure was 0.0836 µM; with `CC1(C)S[C@@H]2[C@@H](NC(=O)C(F)(F)F)C(=O)N2[C@H]1C(=O)OCc1ccccc1` [6α-CF3 CONH / 0 / OBZ, Benzyl 6α-trifluoroacetamidopenicillanate], 9.94 µM.

`CC1(C)S[C@@H]2[C@H](COC(=O)NCc3ccccc3)C(=O)N2[C@H]1C(=O)OCc1ccccc1` [6β-CH2 O(CO)NH(BZ) / 0 / OBZ]: the IC50 is 33 µM. Turning to `CC1(C)[C@H](C(=O)OCc2ccc(C(=O)O)cc2)N2C(=O)[C@@H](NC(=O)C(F)(F)F)[C@H]2S1(=O)=O` [6β-CF3 (CO)NH / 2 / OBZ(p-COOH)], the IC50 is 2.09 µM. Same read-out and setting: next, `CN(Cc1ccccc1)C(=O)[C@@H]1N2C(=O)[C@@H](NC(=O)C(F)(F)F)[C@H]2SC1(C)C` [6β-CF3 (CO)NH / 0 / N(CH3)(BZ), 2,2-diimethyl-6-(trifluoroacetamido)-3-(N-methyl-N-benzylcarbamoyl)penam]: 1.44 µM. As for `CC(=O)O[C@H]1C(=O)N2[C@@H]1[S+]([O-])C(C)(C)[C@@H]2C(=O)OCc1ccccc1` (stereo partly drawn) [CH3 COO / 1 / OBZ], the IC50 was 13.7 µM. On the same count and under the same terms, next, `CC[C@@]1(NC(=O)C(F)(F)F)C(=O)N2[C@@H](C(=O)OCc3ccccc3)C(C)(C)[S+]([O-])[C@@H]21` (stereo partly drawn) [β-CF3 CONH / α-C2 H5 / 1 / OBZ]: 11.2 µM; `CN(C(=O)C(F)(F)F)[C@H]1C(=O)N2[C@@H]1[S+]([O-])C(C)(C)[C@@H]2C(=O)OCc1ccccc1` (stereo partly drawn) [6α-CF3 CON(CH3) / 1 / OBZ]: 6.94 µM; `CN(CC(=O)OC(C)(C)C)C(=O)[C@@H]1N2C(=O)[C@H](NC(=O)C(F)(F)F)[C@H]2S(=O)(=O)C1(C)C` [6α-CF3 (CO)NH / 2 / N(CH3)(CH2 COOtBu)]: 1.48 µM. Same read-out and setting: next, `CO[C@H]1C(=O)N2[C@@H](C(=O)OCC(=O)OC(C)(C)C)C(C)(C)S(=O)(=O)[C@H]12` [6α-OCH3 / 2 / OCH2 COOtBu]: 7.95 µM; `CO[C@H]1C(=O)N2[C@@H](C(=O)OCc3ccc(C(=O)O)cc3)C(C)(C)S(=O)(=O)[C@H]12` [6α-OCH3 / 2 / OBZ(p-COOH)]: 5.03 µM. Still for that read-out and setting: next, `CO[C@@]1(NC(=O)C(F)(F)F)C(=O)N2[C@@H](C(=O)OCc3ccccc3)C(C)(C)S(=O)(=O)[C@@H]21` [β-CF3 CONH / α-CH3 O / 2 / OBZ]: 19.4 µM; `CCC1(N(C)C(=O)C(F)(F)F)C(=O)N2C1[S+]([O-])C(C)(C)C2C(=O)OCc1ccccc1` (stereo not drawn) [β-CF3 CON(CH3) / α-C2 H5 / 1 / OBZ]: 43.4 µM.

Regarding `Cc1ccc(S(=O)(=O)C[C@H]2C(=O)N3[C@@H]2[S+]([O-])C(C)(C)[C@@H]3C(=O)OCc2ccccc2)cc1` (stereo partly drawn) [6α-(TS)CH2 / 1 / OBZ], the half-maximal inhibitory concentration (IC50) was 8.41 µM. For `CC1(C)[C@H](C(=O)OCc2ccccc2)N2C(=O)C(OC(=O)COc3ccccc3)[C@H]2[S+]1[O-]` (stereo partly drawn) [C6 H5 OCH2 COO / 1 / OBZ], the IC50 is 10.9 µM. Take `CN(Cc1ccc(C(=O)OC(C)(C)C)cc1)C(=O)[C@@H]1N2C(=O)[C@H](NC(=O)C(F)(F)F)[C@H]2S(=O)(=O)C1(C)C` [6α-CF3 (CO)NH / 2 / N(CH3)BZ(p-COOtBu)]: the IC50 was 1.28 µM. Consider `CN(CC(=O)O)C(=O)[C@@H]1N2C(=O)[C@H](NC(=O)C(F)(F)F)[C@H]2S(=O)(=O)C1(C)C` [6α-CF3 (CO)NH / 2 / N(CH3)(CH2 COOH)], for which the IC50 is 12 µM.

As to `CO[C@H]1C(=O)N2[C@@H]1SC(C)(COC(C)=O)[C@@H]2C(=O)OCc1ccccc1` (stereo partly drawn) [α-CH3 O / 0 / OBZ], the 50% inhibitory concentration (IC50) is 13.2 µM. Still for that read-out and setting: with `Cc1ccc(S(=O)(=O)N[C@H]2C(=O)N3[C@@H](C(=O)OCc4ccccc4)C(C)(C)S(=O)(=O)[C@H]23)cc1` [6α-(TS)NH / 2 / OBZ] the figure was 0.406 µM.

The assay is the same for the next values; noted with them: read-out: IC50 (dosage for 50% inhibition of the enzyme activity); crude human PMN extract, 0.2 mM Boc-AAPAN, pH 7.5, 410 mμ, 2 minutes after zero time.
In the case of `CC1(C)[C@H](C(=O)OCc2ccccc2)N2C(=O)C(OC(=O)Cc3ccccc3)[C@H]2S1(=O)=O` (stereo partly drawn) [(BZ)COO / 2 / OBZ], the half-maximal inhibitory concentration (IC50) is 8.74 µM.

As for `CC1(C)S[C@@H]2C(OC(=O)Cc3ccccc3)C(=O)N2[C@H]1C(=O)OCc1ccccc1` (stereo partly drawn) [(BZ)COO / 0 / OBZ], the IC50 was 47 µM.

(Values after US4847247A, “Penicillin derivatives as anti-inflammatory and antidegenerative agents” (Merck & Co., Inc., priority 1986, dated 1989).)
